Among the data in patent US20250059175A1, “Mutant Pi3k-Alpha Inhibitors And Their Use As Pharmaceuticals” (Prelude Therapeutics Incorporated, priority 2023, published 2025) are IC50 values, retold here.

Read-outs that look alike come from different tables or passages of the source. Where only a bound is given, the exact number is not on record here.

The subject of the test is phosphorylation of AKT on Ser473 (PI3K pathway) in T-47D (heterozygous PIK3CA H1047R) cell line. The test can be described thus: PI3K pathway activation assay (pAKT Ser473 HTRF), T-47D cells. The test is classed as cell-based. The settings on record: T-47D (heterozygous PIK3CA H1047R) cells, two hours of treatment, pAKT Ser473 HTRF, read-out: T47D pAKT IC50. How it is done:
The inhibitory activity of the compounds of the disclosure was evaluated by measuring phosphorylation of AKT on Ser473 as a readout of the PI3K pathway using HTRF (CisBio catalog number: 64AKSPE). These studies were conducted in the T-47D (heterozygous PIK3CA H1047R) and SKBR3 (PIK3CA WT) cell lines. Cells were maintained in a 37° C. incubator at 5% CO2 in the following media: T-47D: RPMI 1640, ATCC© Modification (Gibco, A10491-01) supplemented with 10% v/v FBS (Gibco, 26140-079), 1% penicillin streptomycin (Gibco, 15140-122), and 7.4 ug/mL insulin (MilliporeSigma, I9278); SKBR3: McCoy's 5a (Modified) Medium (Gibco, 16600-082) supplemented with 10% v/v FBS (Gibco, 26140-079). Cells were seeded in 384-well plates at a density of 4,000 cells/well. Compounds dissolved in DMSO were added using a digital dispense (D300E, Tecan) 10-point serial dilution. After two hours of treatment, cells were lysed for thirty minutes and then incubated with detection reagents per HTRF kit material and manufacturer's instructions. Fluorescence signal was measured with a multimode plate reader (Envision 2105, Perkin Elmer). Fluorescent signal was normalized to background and DMSO controls to obtain percent inhibition/activity for each compound.

For the compound `Cc1cc(C(C)Nc2ccc(Cl)nc2C(=O)O)cc(N2C(=O)OC[C@@H]2Cc2ccccc2)c1` (stereo partly drawn) [Example 1, 3-((1-(3-((S)-4-Benzyl-2-oxooxazolidin-3-yl)-5-methylphenyl)ethyl)amino)-6-chloropicolinic acid], the IC50 (Homo sapiens, T47D, 2 h) fell in the range of 100 to 1000 nM.

For `Cc1cc([C@@H](C)Nc2ccc(Cl)nc2C(=O)O)nc(N2C(=O)OC[C@@H]2Cc2ccc(C(=O)N(C)C)cc2)c1` [Example 51, 6-Chloro-3-(((R)-1-(6-((S)-4-(4-(dimethylcarbamoyl)benzyl)-2-oxooxazolidin-3-yl)-4-methylpyridin-2-yl)ethyl)amino)picolinic acid], under “Homo sapiens, T47D, 2 h”, the IC50 lay within 100 to 1000 nM.

Turning to `Cc1cc([C@@H](C)Nc2ccc(Cl)nc2C(=O)O)cc(N2C(=O)OC[C@@H]2Cc2ccc(Br)cc2)c1` [Example 9, 3-(((R)-1-(3-((S)-4-(4-Bromobenzyl)-2-oxooxazolidin-3-yl)-5-methylphenyl)ethyl)amino)-6-chloropicolinic acid], the half-inhibitory concentration (IC50) (Homo sapiens, T47D, 2 h) lay within 1000 to 10000 nM.

`Cc1cc(C(C)Nc2ccc(Cl)nc2C(=O)O)cc(N2C(=O)OC[C@@H]2Cc2ccccc2)c1` (single isomer, unassigned) [Example 2]: the IC50 (Homo sapiens, T47D, 2 h) is 100 to 1000 nM.

Take `Cc1cc([C@@H](C)Nc2ccc(Cl)nc2C(=O)O)nc(N2C(=O)OC[C@@H]2Cc2cnn3ccccc23)c1` [Example 46, 6-Chloro-3-(((R)-1-(4-methyl-6-((S)-2-oxo-4-(pyrazolo[1,5-α]pyridin-3-ylmethyl)oxazolidin-3-yl)pyridin-2-yl)ethyl)amino)picolinic acid]: the IC50 is under 100 nM.

As for `Cc1cc([C@@H](C)Nc2ccc(Cl)nc2C(=O)O)nc(N2C(=O)OC[C@]2(C)Cc2ccccc2)c1` [Example 54, 3-(((R)-1-(6-((S)-4-Benzyl-4-methyl-2-oxooxazolidin-3-yl)-4-methylpyridin-2-yl)ethyl)amino)-6-chloropicolinic acid], the IC50 (Homo sapiens, T47D, 2 h) lay in the range of 100 to 1000 nM.

Take `Cc1cc([C@@H](C)Nc2ccc(Cl)nc2C(=O)O)nc(N2C(=O)OCC[C@@H]2Cc2ccccc2)c1` [Example 56, 3-(((R)-1-(6-((S)-4-Benzyl-2-oxo-1,3-oxazinan-3-yl)-4-methylpyridin-2-yl)ethyl)amino)-6-chloropicolinic acid]: the concentration for half-maximal inhibition (IC50) (Homo sapiens, T47D, 2 h) was in the range of 100 to 1000 nM.

As to `Cc1cc([C@@H](C)Nc2ccc(Cl)nc2C(=O)O)nc(N2C(=O)OC[C@@H]2Cc2cn(C)c3ncccc23)c1` [Example 39, 6-Chloro-3-(((R)-1-(4-methyl-6-((S)-4-((1-methyl-1H-pyrrolo[2,3-b]pyridin-3-yl)methyl)-2-oxooxazolidin-3-yl)pyridin-2-yl)ethyl)amino)picolinic acid], the 50% inhibitory concentration (IC50) (Homo sapiens, T47D, 2 h) is under 100 nM.

On to `Cc1cc([C@@H](C)Nc2ccc(Cl)nc2C(=O)O)nc(N2C(=O)OC[C@@H]2Cc2cn(C)nc2F)c1` [Example 36, 6-Chloro-3-(((R)-1-(6-((S)-4-((3-fluoro-1-methyl-1H-pyrazol-4-yl)methyl)-2-oxooxazolidin-3-yl)-4-methylpyridin-2-yl)ethyl)amino)picolinic acid], for which, under “Homo sapiens, T47D, 2 h”, the IC50 lay in the range of 100 to 1000 nM.

On to `Cc1cc([C@@H](C)Nc2ccc(Cl)nc2C(=O)O)nc(N2C(=O)OC[C@@H]2Cc2cn(C)nc2C)c1` [Example 35, 6-Chloro-3-(((R)-1-(6-((S)-4-((1,3-dimethyl-1H-pyrazol-4-yl)methyl)-2-oxooxazolidin-3-yl)-4-methylpyridin-2-yl)ethyl)amino)picolinic acid], for which the IC50 (Homo sapiens, T47D, 2 h) fell in the range of 100 to 1000 nM.

With `Cc1cc([C@@H](C)Nc2ccc(Cl)nc2C(=O)O)nc(N2C(=O)OC[C@@H]2Cc2nn(C)c3ccccc23)c1` [Example 38, 6-Chloro-3-(((R)-1-(4-methyl-6-((S)-4-((1-methyl-1H-indazol-3-yl)methyl)-2-oxooxazolidin-3-yl)pyridin-2-yl)ethyl)amino)picolinic acid], the concentration for half-maximal inhibition (IC50) (Homo sapiens, T47D, 2 h) is 100 to 1000 nM.

`Cc1cc([C@@H](C)Nc2ccc(Cl)nc2C(=O)O)nc(N2C(=O)OC[C@@H]2Cc2cccc3ccccc23)c1` [Example 31, 6-Chloro-3-(((R)-1-(4-methyl-6-((S)-4-(naphthalen-1-ylmethyl)-2-oxooxazolidin-3-yl)pyridin-2-yl)ethyl)amino)picolinic acid]: the IC50 (Homo sapiens, T47D, 2 h) was in the range of 100 to 1000 nM.

Turning to `Cc1cc(C(C)Nc2cccnc2C(=O)O)nc(N2C(=O)OC[C@@H]2Cc2ccccc2)c1` (single isomer, unassigned) [Example 13], the half-maximal inhibitory concentration (IC50) (Homo sapiens, T47D, 2 h) fell in the range of 100 to 1000 nM.

As to `CC(Nc1ccc(F)nc1C(=O)O)c1cc(Cl)cc(N2C(=O)OC[C@@H]2Cc2ccccc2)c1` (stereo partly drawn) [Example 7, 3-((1-(3-((S)-4-Benzyl-2-oxooxazolidin-3-yl)-5-chlorophenyl)ethyl)amino)-6-fluoropicolinic acid], the IC50 (Homo sapiens, T47D, 2 h) lay within 100 to 1000 nM.

`CC(Nc1ccc(Cl)nc1C(=O)O)c1cc(Cl)cc(N2C(=O)OC[C@@H]2Cc2ccccc2)c1` (stereo partly drawn) [Example 6, 3-((1-(3-((S)-4-Benzyl-2-oxooxazolidin-3-yl)-5-chlorophenyl)ethyl)amino)-6-chloropicolinic acid]: the half-inhibitory concentration (IC50) (Homo sapiens, T47D, 2 h) fell in the range of 100 to 1000 nM.

For the compound `Cc1cc([C@@H](C)Nc2ccc(Cl)nc2C(=O)O)nc(N2C(=O)CCC2Cc2ccccc2)c1` (stereo partly drawn) [Example 55, 3-(((1R)-1-(6-(2-benzyl-5-oxopyrrolidin-1-yl)-4-methylpyridin-2-yl)ethyl)amino)-6-chloropicolinic acid], the IC50 (Homo sapiens, T47D, 2 h) was in the range of 1000 to 10000 nM.

Take `Cc1cc([C@@H](C)Nc2ccc(Cl)nc2C(=O)O)nc(N2C(=O)OC[C@@H]2Cc2cc(C)ncc2F)c1` [Example 30, 6-Chloro-3-(((R)-1-(6-((S)-4-((5-fluoro-2-methylpyridin-4-yl)methyl)-2-oxooxazolidin-3-yl)-4-methylpyridin-2-yl)ethyl)amino)picolinic acid]: the half-inhibitory concentration (IC50) (Homo sapiens, T47D, 2 h) was 100 to 1000 nM.

`Cc1cc([C@@H](C)Nc2ccc(Cl)nc2C(=O)O)nc(N2C(=O)OC[C@@H]2Cc2ccc3cncn3c2)c1` [Example 41, 6-Chloro-3-(((R)-1-(6-((S)-4-(imidazo[1,5-α]pyridin-6-ylmethyl)-2-oxooxazolidin-3-yl)-4-methylpyridin-2-yl)ethyl)amino)picolinic acid]: the IC50 lay within 100 to 1000 nM.

Turning to `Cc1cc([C@@H](C)Nc2ccc(Cl)nc2C(=O)O)nc(N2C(=O)OC[C@@H]2Cc2ccc(C(=O)OC(C)(C)C)cc2)c1` [Example 25, 3-(((R)-1-(6-((S)-4-(4-(tert-Butoxycarbonyl)benzyl)-2-oxooxazolidin-3-yl)-4-methylpyridin-2-yl)ethyl)amino)-6-chloropicolinic acid], the half-inhibitory concentration (IC50) (Homo sapiens, T47D, 2 h) is 100 to 1000 nM.

As to `Cc1cc([C@@H](C)Nc2ccc(Cl)nc2C(=O)O)nc(N2C(=O)OC[C@@H]2Cc2cn(C)c3ccccc23)c1` [Example 37, 6-Chloro-3-(((R)-1-(4-methyl-6-((S)-4-((1-methyl-1H-indol-3-yl)methyl)-2-oxooxazolidin-3-yl)pyridin-2-yl)ethyl)amino)picolinic acid], the half-maximal inhibitory concentration (IC50) (Homo sapiens, T47D, 2 h) was under 100 nM.

Turning to `CC(Nc1ccc(Cl)nc1C(=O)O)c1cc(F)cc(N2C(=O)OC[C@@H]2Cc2ccccc2)c1` (stereo partly drawn) [Example 4, 3-((1-(3-((S)-4-Benzyl-2-oxooxazolidin-3-yl)-5-fluorophenyl)ethyl)amino)-6-chloropicolinic acid], the 50% inhibitory concentration (IC50) (Homo sapiens, T47D, 2 h) fell in the range of 100 to 1000 nM.

As to `Cc1cc([C@@H](C)Nc2ccc(Cl)nc2C(=O)O)nc(N2C(=O)OC[C@@H]2Cc2cccn3nccc23)c1` [Example 45, 6-Chloro-3-(((R)-1-(4-methyl-6-((S)-2-oxo-4-(pyrazolo[1,5-α]pyridin-4-ylmethyl)oxazolidin-3-yl)pyridin-2-yl)ethyl)amino)picolinic acid], the IC50 was under 100 nM.
